Data reported in article PMC5845353, “The selective cathepsin K inhibitor MIV-711 attenuates joint pathology in experimental animal models of osteoarthritis” (Journal of Translational Medicine, 2018).

Columns and labels:
[1] = system: bone resorption biomarker HP-1; experiment: Urinary HP-1 (bone resorption biomarker) in ACLT rabbits; type: in vivo, rabbit
Procedure: Starting 1 week after sham operation or ACLT, animals were dosed daily for 7 weeks by oral gavage with either MIV-711 (synthesized by Medivir and given as a suspension in 1% Methocel A4C in water) or vehicle (1% Methocel A4C in water) at a dose volume of 4 mL/kg. The four treatment groups (n = 7 in each group) were: (1) sham + vehicle; (2) ACLT + vehicle; (3) ACLT + MIV-711, 30 µmol/kg (low dose) and (4) ACLT + MIV-711, 100 µmol/kg (high dose).
Urine was collected in the morning from all animals for biomarker measurements before surgery, before dosing on Day 1, Day 10 and during Week 4 and Week 7. The urine was stored frozen (− 70 to − 80 °C) until analysis.
In rabbits, conventional CTX-I assays to assess bone resorption cannot be used due to species differences. Instead, urinary helical peptide (HP-1) concentrations were measured in rabbits using the MicroVue Helical Peptide kit (Ref: 8022) from Quidel (San Diego, CA) according to the instructions supplied by the manufacturer. In dogs, urinary levels of C-terminal telopeptide of collagen type I (CTX-I) were measured using a commercially available kit (Urine BETA CrossLaps ELISA, Ref: AC-05F1, IDS Nordic Bioscience Diagnostics A/S). In rabbits and dogs, urinary concentrations of C-terminal telopeptide of collagen type II (CTX-II) were measured using the Urine CartiLaps EIA kit (Ref: AC-10F1) from Immunodiagnostics Systems (IDS, Herlev, Denmark) according to the instructions supplied by the manufacturer. In dogs, CTX-II levels were also measured in synovial fluid. Before ELISA analysis, 95 µL of synovial fluid was mixed with 5 µL of hyaluronidase (100 U/mL, Sigma, H-3884). The mixture was incubated overnight at 35 °C. The mixture was then used to measure CTX-II levels (Serum Pre-Clinical CartiLaps ELISA, Ref: AC-08F1, IDS Nordic Bioscience Diagnostics A/S). The creatinine levels in urine were determined at Swedish University of Agricultural Sciences (Uppsala, Sweden), using the enzymatic assay (Cat No. 8L24-01) on the Abbott system Architect c4000.

[2] = system: rabbits subjected to anterior cruciate ligament transection (ACLT); experiment: Rabbit ACLT study, modified Mankin scoring; type: in vivo
Procedure: The femora and tibias were decalcified, embedded in paraffin, sectioned at 5-7 µm at two different levels separated by approximately 2 mm, and stained with safranin O and toluidine blue.
Both tibial plateaus and femoral condyles were subjected to semi-quantitative scoring using a modified Mankin scoring system. Slides were evaluated in animal ID order, i.e. in random order with respect to treatment, so that the reader was effectively blinded to treatment assignment.
Analysis was performed on the tibial plateaus and femoral condyles at two levels (Level 1 and 2) for each:
Group 1) sham + vehicle; Group 2) ACLT + vehicle; Group 3) ACLT + MIV-711, 30 µmol/kg (low dose) and Group 4) ACLT + MIV-711, 100 µmol/kg (high dose).

[3] = Group 3: ACLT + MIV-711, 30 µmol/kg (low dose)
[4] = Group 4: ACLT + MIV-711, 100 µmol/kg (high dose)

`C#C[C@@H]1CN(C(=O)[C@H](CC(C)C)NC(=O)c2ccc(-c3nc(N4CCN(C)CC4)sc3F)cc2)[C@@H]2C(=O)CO[C@H]12` [MIV-711] was tested, and the “HP-1 levels decreased by up to, vs ACLT vehicle controls” value ([1]; ACLT rabbits, over doses 30 and 100 µmol/kg and time points) was “up to 72%”, the “urinary HP-1 levels reduced by, vs ACLT rabbits treated with vehicle” value ([1]; after 4 weeks, 30 µmol/kg) was 43% and the “urinary HP-1 levels reduced by, vs ACLT rabbits treated with vehicle” value ([1]; after 4 weeks, 100 µmol/kg) was 68%. The “urinary HP-1 levels reduced by, vs ACLT rabbits treated with vehicle” value ([1]; after 7 weeks, 30 µmol/kg (p > 0.05)) was 25%, the “urinary HP-1 levels reduced by, vs ACLT rabbits treated with vehicle” value ([1]; after 7 weeks, 100 µmol/kg) was 51% and the “urinary HP-1 levels reduced by, vs ACLT rabbits treated with vehicle” value ([1]; after 10 days of dosing, 30 µmol/kg) was 45%. The “urinary HP-1 levels reduced by, vs ACLT rabbits treated with vehicle” value ([1]; after 10 days of dosing, 100 µmol/kg) was 72%, the “effect on Mankin scores” value ([2]; ACLT rabbits, 30 and 100 µmol/kg) was “did not affect” and the “Total Mankin score Level 1+2_FC, mean” value [2, 3] was 58.86. For the same compound, the “Total Mankin score Level 1+2_FC, median” value [2, 3] was 58.00, the “Total Mankin score Level 1+2_LFC, mean” value [2, 3] was 21.14 and the “Total Mankin score Level 1+2_LFC, median” value [2, 3] was 17.00. For the same compound, the “Total Mankin score Level 1+2_LTP, mean” value [2, 3] was 9.71, the “Total Mankin score Level 1+2_LTP, median” value [2, 3] was 10.00 and the “Total Mankin score Level 1+2_MFC, mean” value [2, 3] was 37.71. For the same compound, the “Total Mankin score Level 1+2_MFC, median” value [2, 3] was 43.00, the “Total Mankin score Level 1+2_MTP, mean” value [2, 3] was 16.71 and the “Total Mankin score Level 1+2_MTP, median” value [2, 3] was 16.00. The “Total Mankin score Level 1+2_TP, mean” value [2, 3] was 26.43, the “Total Mankin score Level 1+2_TP, median” value [2, 3] was 26.00 and the “Total Mankin score Level 1_FC, mean” value [2, 3] was 32.14. For the same compound, the “Total Mankin score Level 1_FC, median” value [2, 3] was 32.00, the “Total Mankin score Level 1_LFC, mean” value [2, 3] was 12.00 and the “Total Mankin score Level 1_LFC, median” value [2, 3] was 10.00. For the same compound, the “Total Mankin score Level 1_LTP, mean” value [2, 3] was 5.57, the “Total Mankin score Level 1_LTP, median” value [2, 3] was 4.00 and the “Total Mankin score Level 1_MFC, mean” value [2, 3] was 20.14. The “Total Mankin score Level 1_MFC, median” value [2, 3] was 23.00, the “Total Mankin score Level 1_MTP, mean” value [2, 3] was 9.86 and the “Total Mankin score Level 1_MTP, median” value [2, 3] was 9.00. The “Total Mankin score Level 1_TP, mean” value [2, 3] was 15.43, the “Total Mankin score Level 1_TP, median” value [2, 3] was 16.00 and the “Total Mankin score Level 2_FC, mean” value [2, 3] was 26.71. The “Total Mankin score Level 2_FC, median” value [2, 3] was 26.00, the “Total Mankin score Level 2_LFC, mean” value [2, 3] was 9.14 and the “Total Mankin score Level 2_LFC, median” value [2, 3] was 7.00. For the same compound, the “Total Mankin score Level 2_LTP, mean” value [2, 3] was 4.14, the “Total Mankin score Level 2_LTP, median” value [2, 3] was 4.00 and the “Total Mankin score Level 2_MFC, mean” value [2, 3] was 17.57. The “Total Mankin score Level 2_MFC, median” value [2, 3] was 20.00, the “Total Mankin score Level 2_MTP, mean” value [2, 3] was 6.86 and the “Total Mankin score Level 2_MTP, median” value [2, 3] was 6.00. The “Total Mankin score Level 2_TP, mean” value [2, 3] was 11.00, the “Total Mankin score Level 2_TP, median” value [2, 3] was 12.00 and the “Total Mankin score Level 1+2_FC, mean” value [2, 4] was 49.71. For the same compound, the “Total Mankin score Level 1+2_FC, median” value [2, 4] was 51.00, the “Total Mankin score Level 1+2_LFC, mean” value [2, 4] was 21.14 and the “Total Mankin score Level 1+2_LFC, median” value [2, 4] was 21.00. For the same compound, the “Total Mankin score Level 1+2_LTP, mean” value [2, 4] was 12.71, the “Total Mankin score Level 1+2_LTP, median” value [2, 4] was 12.00 and the “Total Mankin score Level 1+2_MFC, mean” value [2, 4] was 28.57. The “Total Mankin score Level 1+2_MFC, median” value [2, 4] was 27.00, the “Total Mankin score Level 1+2_MTP, mean” value [2, 4] was 17.43 and the “Total Mankin score Level 1+2_MTP, median” value [2, 4] was 14.00. For the same compound, the “Total Mankin score Level 1+2_TP, mean” value [2, 4] was 30.14, the “Total Mankin score Level 1+2_TP, median” value [2, 4] was 27.00 and the “Total Mankin score Level 1_FC, mean” value [2, 4] was 25.43. The “Total Mankin score Level 1_FC, median” value [2, 4] was 29.00, the “Total Mankin score Level 1_LFC, mean” value [2, 4] was 10.57 and the “Total Mankin score Level 1_LFC, median” value [2, 4] was 10.00. For the same compound, the “Total Mankin score Level 1_LTP, mean” value [2, 4] was 6.29, the “Total Mankin score Level 1_LTP, median” value [2, 4] was 7.00 and the “Total Mankin score Level 1_MFC, mean” value [2, 4] was 14.86. The “Total Mankin score Level 1_MFC, median” value [2, 4] was 15.00, the “Total Mankin score Level 1_MTP, mean” value [2, 4] was 9.29 and the “Total Mankin score Level 1_MTP, median” value [2, 4] was 8.00. For the same compound, the “Total Mankin score Level 1_TP, mean” value [2, 4] was 15.57, the “Total Mankin score Level 1_TP, median” value [2, 4] was 16.00 and the “Total Mankin score Level 2_FC, mean” value [2, 4] was 24.29. For the same compound, the “Total Mankin score Level 2_FC, median” value [2, 4] was 23.00, the “Total Mankin score Level 2_LFC, mean” value [2, 4] was 10.57 and the “Total Mankin score Level 2_LFC, median” value [2, 4] was 10.00. For the same compound, the “Total Mankin score Level 2_LTP, mean” value [2, 4] was 6.43, the “Total Mankin score Level 2_LTP, median” value [2, 4] was 6.00 and the “Total Mankin score Level 2_MFC, mean” value [2, 4] was 13.71. For the same compound, the “Total Mankin score Level 2_MFC, median” value [2, 4] was 13.00, the “Total Mankin score Level 2_MTP, mean” value [2, 4] was 8.14 and the “Total Mankin score Level 2_MTP, median” value [2, 4] was 7.00. For the same compound, the “Total Mankin score Level 2_TP, mean” value [2, 4] was 14.57 and the “Total Mankin score Level 2_TP, median” value [2, 4] was 14.00.
